Source: ChEMBL document CHEMBL3994568 (2016)
In brackets after ≈: the same amount, converted by molar mass.

How the values were obtained:
Assay type in all cases: functional
Aspergillus flavus = assay: Antifungal activity against Aspergillus flavus ATCC 204304 after 24 hrs by two-fold microbroth dilution method; settings: ATCC 204304, 24 h
Saccharomyces cerevisiae = assay: Antifungal activity against Saccharomyces cerevisiae ATCC 9763 after 24 hrs by two-fold microbroth dilution method; settings: ATCC 9763, 24 h
Bacillus spizizenii = assay: Antibacterial activity against Bacillus subtilis ATCC 6633 after 24 hrs by two-fold microbroth dilution method; settings: ATCC 6633, 24 h
Micrococcus luteus = assay: Antibacterial activity against Micrococcus luteus ATCC 4698 after 24 hrs by two-fold microbroth dilution method; settings: NCTC 2665, 24 h
Staphylococcus aureus [1] = assay: Antibacterial activity against Staphylococcus aureus ATCC 25923 after 24 hrs by two-fold microbroth dilution method; settings: ATCC 25923, 24 h
Cyberlindnera jadinii = assay: Antifungal activity against Candida utilis ATCC 9950 after 24 hrs by two-fold microbroth dilution method; settings: Williopsis jadinii, ATCC 9950, 24 h
Escherichia coli = assay: Antibacterial activity against Escherichia coli JM109 after 24 hrs by two-fold microbroth dilution method; settings: JM109, 24 h
Pseudomonas aeruginosa [2] = assay: Antibacterial activity against Pseudomonas aeruginosa ATCC 27853 after 24 hrs by two-fold microbroth dilution method; settings: ATCC 27853, 24 h
Bacillus = assay: Antibacterial activity against Bacillus proteus ATCC 13315 after 24 hrs by two-fold microbroth dilution method; settings: ATCC 13315, 24 h
Staphylococcus aureus [3] = assay: Antibacterial activity against methicillin-resistant Staphylococcus aureus N315 after 24 hrs by two-fold microbroth dilution method; settings: N315, 24 h
Pichia norvegensis = assay: Antifungal activity against Candida mycoderma ATCC 9888 after 24 hrs by two-fold microbroth dilution method; settings: ATCC 9888, 24 h
Candida albicans = assay: Antifungal activity against Candida albicans ATCC 10231 after 24 hrs by two-fold microbroth dilution method; settings: ATCC 10231, 24 h
[4] = Antibacterial activity against Eberthella typhosa ATCC 14028 after 24 hrs by two-fold microbroth dilution method; settings: ATCC 14028, 24 h
HEp-2 = assay: Cytotoxicity against human Hep2 cells assessed as cell viability up to 125 ug/ml after 24 hrs by CCK8 assay relative to control
Pseudomonas aeruginosa [5] = assay: Potency index, ratio of chloromycin MIC to compound MIC for Pseudomonas aeruginosa ATCC 27853

Structure (SMILES)	MIC (Aspergillus flavus) [µg/mL]	MIC (Saccharomyces cerevisiae) [µg/mL]	MIC (Bacillus spizizenii) [µg/mL]	MIC (Micrococcus luteus) [µg/mL]	MIC (Staphylococcus aureus [1]) [µg/mL]	MIC (Cyberlindnera jadinii) [µg/mL]	MIC (Escherichia coli) [µg/mL]	MIC (Pseudomonas aeruginosa [2]) [µg/mL]	MIC (Bacillus) [µg/mL]	MIC (Staphylococcus aureus [3]) [µg/mL]	MIC (Pichia norvegensis) [µg/mL]	MIC (Candida albicans) [µg/mL]	MIC [4] [µg/mL]	Activity (HEp-2) [%]	Ratio (Pseudomonas aeruginosa [5])
CCCCCCCCCCCCCCCCn1c2ccc(-c3csc(N)n3)cc2c2cc(-c3csc(N)n3)ccc21	128 (≈ 218 µM)	256 (≈ 435 µM)	512 (≈ 871 µM)	256 (≈ 435 µM)	256 (≈ 435 µM)	128 (≈ 218 µM)	128 (≈ 218 µM)	512 (≈ 871 µM)	128 (≈ 218 µM)	256 (≈ 435 µM)	512 (≈ 871 µM)	512 (≈ 871 µM)	512 (≈ 871 µM)		
CCCCCCn1c2ccc(C(=O)CCl)cc2c2cc(C(=O)CCl)ccc21	512 (≈ 1270 µM)	512 (≈ 1270 µM)	512 (≈ 1270 µM)	256 (≈ 633 µM)	512 (≈ 1270 µM)	256 (≈ 633 µM)	512 (≈ 1270 µM)	16 (≈ 39.6 µM)	16 (≈ 39.6 µM)	512 (≈ 1270 µM)	256 (≈ 633 µM)	512 (≈ 1270 µM)	256 (≈ 633 µM)		
CCCCn1c2ccc(-c3csc(N)n3)cc2c2cc(-c3csc(N)n3)ccc21	256 (≈ 610 µM)	128 (≈ 305 µM)	256 (≈ 610 µM)	128 (≈ 305 µM)	128 (≈ 305 µM)	256 (≈ 610 µM)	128 (≈ 305 µM)	64 (≈ 153 µM)	128 (≈ 305 µM)	256 (≈ 610 µM)	64 (≈ 153 µM)	128 (≈ 305 µM)	128 (≈ 305 µM)		
CCCCCCCCCCn1c2ccc(C(=O)CCl)cc2c2cc(C(=O)CCl)ccc21	512 (≈ 1110 µM)	256 (≈ 556 µM)	256 (≈ 556 µM)	128 (≈ 278 µM)	256 (≈ 556 µM)	256 (≈ 556 µM)	512 (≈ 1110 µM)	128 (≈ 278 µM)	256 (≈ 556 µM)	512 (≈ 1110 µM)	256 (≈ 556 µM)	256 (≈ 556 µM)	256 (≈ 556 µM)		
CCCCCn1c2ccc(C(=O)CCl)cc2c2cc(C(=O)CCl)ccc21	128 (≈ 328 µM)	128 (≈ 328 µM)	512 (≈ 1310 µM)	512 (≈ 1310 µM)	256 (≈ 656 µM)	128 (≈ 328 µM)	128 (≈ 328 µM)	128 (≈ 328 µM)	512 (≈ 1310 µM)	512 (≈ 1310 µM)	256 (≈ 656 µM)	256 (≈ 656 µM)	256 (≈ 656 µM)		
CCn1c2ccc(-c3csc(N)n3)cc2c2cc(-c3csc(N)n3)ccc21	256 (≈ 654 µM)	256 (≈ 654 µM)	256 (≈ 654 µM)	128 (≈ 327 µM)	256 (≈ 654 µM)	128 (≈ 327 µM)	128 (≈ 327 µM)	256 (≈ 654 µM)	256 (≈ 654 µM)	512 (≈ 1310 µM)	64 (≈ 163 µM)	64 (≈ 163 µM)	256 (≈ 654 µM)		
CCn1c2ccc(C(=O)CCl)cc2c2cc(C(=O)CCl)ccc21	256 (≈ 735 µM)	128 (≈ 368 µM)	512 (≈ 1470 µM)	256 (≈ 735 µM)	256 (≈ 735 µM)	256 (≈ 735 µM)	512 (≈ 1470 µM)	256 (≈ 735 µM)	512 (≈ 1470 µM)	512 (≈ 1470 µM)	128 (≈ 368 µM)	512 (≈ 1470 µM)	512 (≈ 1470 µM)		
CCCCCCCCCCn1c2ccc(-c3csc(N)n3)cc2c2cc(-c3csc(N)n3)ccc21	128 (≈ 254 µM)	256 (≈ 508 µM)	512 (≈ 1020 µM)	256 (≈ 508 µM)	128 (≈ 254 µM)	256 (≈ 508 µM)	256 (≈ 508 µM)	512 (≈ 1020 µM)	128 (≈ 254 µM)	128 (≈ 254 µM)	128 (≈ 254 µM)	128 (≈ 254 µM)	512 (≈ 1020 µM)		
CCCn1c2ccc(C(=O)CCl)cc2c2cc(C(=O)CCl)ccc21	512 (≈ 1410 µM)	256 (≈ 707 µM)	512 (≈ 1410 µM)	512 (≈ 1410 µM)	512 (≈ 1410 µM)	256 (≈ 707 µM)	256 (≈ 707 µM)	256 (≈ 707 µM)	128 (≈ 353 µM)	512 (≈ 1410 µM)	512 (≈ 1410 µM)	256 (≈ 707 µM)	256 (≈ 707 µM)		
CCCCCCCn1c2ccc(C(=O)CCl)cc2c2cc(C(=O)CCl)ccc21	512 (≈ 1220 µM)	512 (≈ 1220 µM)	512 (≈ 1220 µM)	512 (≈ 1220 µM)	512 (≈ 1220 µM)	512 (≈ 1220 µM)	512 (≈ 1220 µM)	512 (≈ 1220 µM)	512 (≈ 1220 µM)	512 (≈ 1220 µM)	256 (≈ 612 µM)	512 (≈ 1220 µM)	512 (≈ 1220 µM)		
CCn1cc(C(=O)O)c(=O)c2cc(F)c(N3CCNCC3)cc21 [NORFLOXACIN]			1 (≈ 3.13 µM)	2 (≈ 6.26 µM)	2 (≈ 6.26 µM)		16 (≈ 50.1 µM)	2 (≈ 6.26 µM)	4 (≈ 12.5 µM)	8 (≈ 25.1 µM)			4 (≈ 12.5 µM)		
CCCCCCCCCCCCCCCCCCn1c2ccc(C(=O)CCl)cc2c2cc(C(=O)CCl)ccc21	256 (≈ 447 µM)	256 (≈ 447 µM)	512 (≈ 894 µM)	512 (≈ 894 µM)	128 (≈ 224 µM)	512 (≈ 894 µM)	256 (≈ 447 µM)	256 (≈ 447 µM)	512 (≈ 894 µM)	256 (≈ 447 µM)	512 (≈ 894 µM)	512 (≈ 894 µM)	256 (≈ 447 µM)		
CCCCCCCCCCCCCCCCCCn1c2ccc(-c3csc(N)n3)cc2c2cc(-c3csc(N)n3)ccc21	256 (≈ 416 µM)	256 (≈ 416 µM)	256 (≈ 416 µM)	512 (≈ 831 µM)	256 (≈ 416 µM)	256 (≈ 416 µM)	128 (≈ 208 µM)	512 (≈ 831 µM)	256 (≈ 416 µM)	512 (≈ 831 µM)	512 (≈ 831 µM)	256 (≈ 416 µM)	256 (≈ 416 µM)		
CCCCCCn1c2ccc(-c3csc(N)n3)cc2c2cc(-c3csc(N)n3)ccc21	512 (≈ 1140 µM)	256 (≈ 572 µM)	512 (≈ 1140 µM)	256 (≈ 572 µM)	32 (≈ 71.5 µM)	256 (≈ 572 µM)	128 (≈ 286 µM)	32 (≈ 71.5 µM)	256 (≈ 572 µM)	64 (≈ 143 µM)	128 (≈ 286 µM)	256 (≈ 572 µM)	256 (≈ 572 µM)		
CCCn1c2ccc(-c3csc(N)n3)cc2c2cc(-c3csc(N)n3)ccc21	256 (≈ 631 µM)	256 (≈ 631 µM)	128 (≈ 316 µM)	128 (≈ 316 µM)	128 (≈ 316 µM)	128 (≈ 316 µM)	256 (≈ 631 µM)	128 (≈ 316 µM)	256 (≈ 631 µM)	256 (≈ 631 µM)	256 (≈ 631 µM)	64 (≈ 158 µM)	256 (≈ 631 µM)		
CCCCCCCCn1c2ccc(C(=O)CCl)cc2c2cc(C(=O)CCl)ccc21	512 (≈ 1180 µM)	256 (≈ 592 µM)	512 (≈ 1180 µM)	512 (≈ 1180 µM)	512 (≈ 1180 µM)	512 (≈ 1180 µM)	512 (≈ 1180 µM)	256 (≈ 592 µM)	512 (≈ 1180 µM)	512 (≈ 1180 µM)	512 (≈ 1180 µM)	512 (≈ 1180 µM)	512 (≈ 1180 µM)		
CCCCCCCCCCCCCCCCn1c2ccc(C(=O)CCl)cc2c2cc(C(=O)CCl)ccc21	256 (≈ 470 µM)	512 (≈ 940 µM)	256 (≈ 470 µM)	256 (≈ 470 µM)	128 (≈ 235 µM)	256 (≈ 470 µM)	256 (≈ 470 µM)	256 (≈ 470 µM)	256 (≈ 470 µM)	256 (≈ 470 µM)	256 (≈ 470 µM)	512 (≈ 940 µM)	512 (≈ 940 µM)		
CCCCn1c2ccc(C(=O)CCl)cc2c2cc(C(=O)CCl)ccc21	256 (≈ 680 µM)	512 (≈ 1360 µM)	256 (≈ 680 µM)	256 (≈ 680 µM)	256 (≈ 680 µM)	128 (≈ 340 µM)	512 (≈ 1360 µM)	512 (≈ 1360 µM)	256 (≈ 680 µM)	256 (≈ 680 µM)	128 (≈ 340 µM)	512 (≈ 1360 µM)	512 (≈ 1360 µM)		
CCCCCCCCn1c2ccc(-c3csc(N)n3)cc2c2cc(-c3csc(N)n3)ccc21	256 (≈ 538 µM)	512 (≈ 1080 µM)	512 (≈ 1080 µM)	512 (≈ 1080 µM)	64 (≈ 135 µM)	512 (≈ 1080 µM)	512 (≈ 1080 µM)	512 (≈ 1080 µM)	128 (≈ 269 µM)	32 (≈ 67.3 µM)	512 (≈ 1080 µM)	512 (≈ 1080 µM)	512 (≈ 1080 µM)		
CCCCCn1c2ccc(-c3csc(N)n3)cc2c2cc(-c3csc(N)n3)ccc21	256 (≈ 590 µM)	128 (≈ 295 µM)	256 (≈ 590 µM)	64 (≈ 148 µM)	64 (≈ 148 µM)	128 (≈ 295 µM)	256 (≈ 590 µM)	2 (≈ 4.61 µM)	256 (≈ 590 µM)	128 (≈ 295 µM)	64 (≈ 148 µM)	128 (≈ 295 µM)	128 (≈ 295 µM)	85	8
O=C(N[C@H](CO)[C@H](O)c1ccc([N+](=O)[O-])cc1)C(Cl)Cl [CHLORAMPHENICOL]			32 (≈ 99 µM)	64 (≈ 198 µM)	8 (≈ 24.8 µM)				32 (≈ 99 µM)	64 (≈ 198 µM)			32 (≈ 99 µM)		
OC(Cn1cncn1)(Cn1cncn1)c1ccc(F)cc1F [FLUCONAZOLE]	256 (≈ 836 µM)	16 (≈ 52.2 µM)				8 (≈ 26.1 µM)					32 (≈ 104 µM)	32 (≈ 104 µM)			
